# Source: patent US5455234A, “Inhibition of hair growth” (priority 1994, dated 1995)
# Columns and labels:
# [1] = tested on: flank organs of Golden Syrian hamsters (androgen-stimulated hair growth); experiment: Golden Syrian hamster assay (flank organ hair mass after topical application); type: in vivo
# Excerpt: Male intact Golden Syrian hamsters are considered acceptable models for human beard hair growth in that they display oval shaped flank organs, one on each side, each about 8 mm. in major diameter, which grow thick black and coarse hair similar to human beard hair. These organs produce hair in response to androgens in the hamster. To evaluate the effectiveness of a composition including an inhibitor, the flank organs of each of a group of hamsters are depilated by applying a thioglycolate based chemical depilatory (Surgex). To one organ of each animal 25 μl. of vehicle alone once a day is applied, while to the other organ of each animal an equal amount of vehicle containing an inhibitor of a cysteine synthetic pathway enzyme is applied. After thirteen applications (one application per day for five days a week), the flank organs are shaved and the amount of recovered hair (hair mass) from each is weighed. Percent-reduction of hair growth is calculated by subtracting the hair mass (mg) value of the test compound treated side from the hair mass value of the vehicle treated side; the delta value obtained is then divided by the hair mass value of the vehicle treated side, and the resultant number is multiplied by 100.
# The above-described assay will be referred to herein as the "Golden Syrian hamster" assay.
# [2] = tested on: cysteine synthetic pathway intermediates in flank organ hair follicles; experiment: Amino acid analysis of hamster flank organ hair follicles (Pico-Tag); type: in vivo; settings: hair follicles of treated flank organs, vehicle A
# Description: Hair follicles were isolated from the flank organs which were treated with either an inhibitor of a cysteine pathway enzyme or the carrier without the inhibitor (the control). L-Cystathiorine, homocysteine, and S-adenosyl homocysteine, which are involved in a pathway leading to cysteine synthesis, were measured by an amino acid analysis method. The amino analysis of hamster flank organ hair follicles was carried out using a commercially available system (Pico-Tag; Waters Associates, Inc., Milford, Mass.). Hair follicle amino acids were extracted with 0.1N HCL, an derivatized with phenylisothiocyanate to yield the phenylthiohydantion derivatives of the respective amino acids, which were then separated by C-18 reverse phase chromatography, and quantitated by in-line UV spectrophotometry.
# More specifically, 250-500 μl of 0.1N HCL was added to each flank organ hair follicle sample, followed by treatment with a sonicator device to obtain cell extracts. The cell extracts were centrifuged at 12,000×gfor 5 min, and the recovered supernatant was filtered through 0.45μ filter. The filtrate was vacuum dried under nitrogen using the Pico-Tag work station. Samples were then derivatized with phenylisothiocyanate reagent by the procedure described in the Waters Associates Pico-Tag manual. An aliquot of the derivatized sample was injected on a C-18 reverse phase column (Pico-Tag column) and the elution was carried out with a gradient buffer system. This procedure separated the amino acids L-cystathionine, homocysteine, and S-adenosyl homocysteine from other amino acids present in hair follicle extracts. The amino acid concentrations were determined at UV wavelength 254 nm using an in-line spectrophotometer and a dedicated HPLC control and data analysis system (Waters Associates).
# [3] = topical, dose 20%, vehicle A, pH 7.5, 13 applications
# [4] = topical, dose 15%, vehicle B, pH 9.5, 13 applications
# [5] = Table 2, topical, dose 0.25%, vehicle A, pH 4.5
# [6] = Table 2, topical, dose 0.50%, vehicle A, pH 5.0
# [7] = Table 2, topical, dose 1.00%, vehicle A, pH 5.0
# [8] = Table 2, topical, dose 5.00%, vehicle A, pH 5.0
# [9] = topical, dose 5%, vehicle A, pH 4.5, 13 applications
# [10] = topical, dose 20%, vehicle A, pH 7.0, 13 applications
# [11] = topical, dose 10%, vehicle A, pH 4.5, 13 applications
# [12] = topical, dose 20%, vehicle A, pH 8.5, 13 applications
# [13] = topical, dose 15%, vehicle A, pH 8.0, 13 applications
compound,measurement,setting,value
"NC(C(=O)O)C(F)(F)F (racemic) [3,3,3,-Trifluoro-DL-alanine]",Hair Mass Treated (mg mean ± SEM),[1]; [3],1.110 ± 0.13 mg
same,Percent Inhibition (mean ± SEM),[1]; [3],32.36 ± 8.01%
"C#CCC(N)C(=O)O (racemic) [DL-Propargylglycine, D,L-2-amino-4-pentynoic acid]",Hair Mass Treated (mg mean ± SEM),[1]; [4],1.401 ± 0.14 mg
same,Percent Inhibition (mean ± SEM),[1]; [4],33.12 ± 5.59%
Nc1nccc2c1ncn2[C@@H]1C=C(CO)[C@@H](O)[C@H]1O [3-Deazaneplanocin],"L-Cystathionine, Percent of Untreated Control (100%)","[2]; dose 0.125%, pH 4.5",49%
same,"S-Adenosyl Homocysteine, Percent of Untreated Control (100%)","[2]; dose 0.125%, pH 4.5",144%
same,"L-Cystathionine, Percent of Untreated Control (100%)","[2]; dose 0.250%, pH 4.5",29%
same,"S-Adenosyl Homocysteine, Percent of Untreated Control (100%)","[2]; dose 0.250%, pH 4.5",149%
same,"L-Cystathionine, Percent of Untreated Control (100%)","[2]; dose 0.500%, pH 4.5",12%
same,"S-Adenosyl Homocysteine, Percent of Untreated Control (100%)","[2]; dose 0.500%, pH 4.5",218%
same,Hair Mass Treated,[1]; [5],1.889 ± 0.15 mg
same,Percent Inhibition (mean ± SEM),[1]; [5],14.82 ± 5.45%
same,Hair Mass Treated,[1]; [6],1.487 ± 0.16 mg
same,Percent Inhibition (mean ± SEM),[1]; [6],35.49 ± 4.62%
same,Hair Mass Treated,[1]; [7],1.113 ± 0.08 mg
same,Percent Inhibition (mean ± SEM),[1]; [7],50.94 ± 4.77%
same,Hair Mass Treated,[1]; [8],0.357 ± 0.15 mg
same,Percent Inhibition (mean ± SEM),[1]; [8],86.65 ± 4.81%
same,dose dependence of inhibition in hair growth,"[1]; topical application, dosage levels 0.25% to 5.00%",increased dosage level of the inhibitor provided an increased inhibition in hair growth
same,Hair Mass Treated (mg mean ± SEM),[1]; [9],0.357 ± 0.15 mg
same,Percent Inhibition (mean ± SEM),[1]; [9],86.65 ± 4.81%
"CC(=O)OC[C@H]1O[C@@H](n2ncc(=O)[nH]c2=O)[C@H](OC(C)=O)[C@@H]1OC(C)=O [6-Azauridine-2',3',5'-triacetate]","L-Cystathionine, Percent of Untreated Control (100%)","[2]; dose 20%, pH 7.0",60%
same,Hair Mass Treated (mg mean ± SEM),[1]; [10],0.455 ± 0.05 mg
same,Percent Inhibition (mean ± SEM),[1]; [10],80.25 ± 2.37%
Nc1ncnc2c1ncn2[C@@H]1O[C@H](CO)[C@@H](O)[C@H]1O [Adenosine],Hair Mass Treated (mg mean ± SEM),[1]; [11],1.140 ± 0.12 mg
same,Percent Inhibition (mean ± SEM),[1]; [11],55.28 ± 4.00%
NNC(=O)c1ccncc1 [Isonicotinic acid hydrazide],Hair Mass Treated (mg mean ± SEM),[1]; [12],1.344 ± 0.18 mg
same,Percent Inhibition (mean ± SEM),[1]; [12],35.13 ± 7.98%
N[C@@H](COC(=O)CCC(=O)O)C(=O)O [O-Succinyl serine],"Homocysteine, Percent of Untreated Control (100%)","[2]; dose 15%, pH 8.0",228%
same,"L-Cystathionine, Percent of Untreated Control (100%)","[2]; dose 15%, pH 8.0",66%
same,Hair Mass Treated (mg mean ± SEM),[1]; [13],0.710 ± 0.07 mg
same,Percent Inhibition (mean ± SEM),[1]; [13],63.58 ± 4.69%
